Measured values: patent US12150940B2, “WASp-protecting small molecules, compositions, methods and uses thereof in the treatment of innate and acquired immune-related disorders or conditions” (BAR ILAN UNIVERSITY, priority 2016, dated 2024)

How the values were obtained:
Jurkat T cells = test: Lymphocyte activation in Jurkat T cells (CD69 and activated LFA-1, flow cytometry); format: cell-based, human; conditions: Jurkat T cells stimulated with PMA and Ionomycin, vs control
Description: FIGS. 9A and 9B, show 1×10^6 Jurkat T cells/ml, stimulated with PMA and Ionomycin, were treated with WASp-binding SMC #6 or control. After incubation, the cells were stained with anti-activated LFA-1 antibody (KIM127), followed by staining with Alexa488-Fluor goat anti-mouse IgG1 secondary antibody (FIG. 9B). Cells were co-stained with PE-Cy5™-conjugated mouse anti-human CD69 and lymphocyte activation was measured by flow-cytometry as described in the Experimental procedures (FIG. 9A). Histograms of negative control versus SMC #6 are presented.
(§1) PBMCs or Jurkat cells (about 3×10^5 cells) were incubated for 4 h, at 37° C. with 50 ng/ml PMA and 250 ng/ml lonomycin, or 40 ng/ml PMA and 6 μM Ionomycin, respectively, or left untreated. After incubation, the cells were collected and stained with 1 μg/ml anti-active human LFA-1 antibody (purified from KIM127 hybridoma sup, ATCC Cat #: CRL-2838, Sigma) for 30 min in 37° C., followed by staining with Alexa488-Fluor goat anti-mouse IgG1 secondary antibody (Molecular Probes, Cat #: A-21121), 30 min on ice. Cells were then co-stained with PE-Cy5™-conjugated mouse anti-human CD69 (BD Pharmingen, Cat #: 555532) to measure lymphocyte activation.
Once activated, lymphocytes proliferate to effectively amplify the immune response. […]

WAVE2 = molecular target: T1, WAVE2 (Homo sapiens, UniProt Q9Y6W5); test: MST binding, YFP-WAVE2 in HEK 293T cell lysate
T1 construct: expressed in transfected cells; host or cells: HEK 293T, transient transfection; unpurified cell lysate
Description: (§2) Diluted cell lysates of YFP-WASp/N-WASp/WAVE2-expressing HEK 293T cells were incubated with serially-diluted (100 μM-3 nM) SMCs. The mixed lysates and SMCs were then loaded into standard-treated Monolith™ capillaries and the fluorescence of the samples was measured by the Monolith NT.115 instrument at 60% MST power. Binding curves of WASp with SMC #6 (FIG. 3A), SMC #30 (FIG. 3B), SMC #33 (FIG. 3C), SMC #34 (FIG. 3D) and Y-27632 (FIG. 3E) or of N-WASp (FIG. 3F) or WAVE2 (FIG. 3G) with SMC #34 were generated by the NanoTemper Analysis 2.231 software. Normalized fluorescence (hot fluorescence/initial fluorescence) is plotted as a function of SMC concentration. […]
(§3) YFP-tagged WASp was obtained from cell lysates of Human Embryonic Kidney (HEK) 293T, transiently transfected with YFP-WASp/WAVE2/N-WASp by DNA-calcium phosphate co-precipitation as previously described (Reicher et al, 2012). […] After loading into the instrument (Monolith NT.115, NanoTemper), the samples were measured by standard protocols at 60% MST power. […] KD values were determined using the NanoTemper analysis software (NT Analysis 1.5.37 or 2.2.31).
(§4) Following this in silico screening, the inventors identified eight SMCs (#6, #23, #24, #25, #30, #32, #33, #34, see Table 1). […] The SMCs that specifically bind the degradation pocket of WASp were further evaluated by the inventors.

[1] = system: WAS−/−/WASp R86C Jurkat T-cells; test: Lymphocyte activation (CD69, flow cytometry) in WAS−/−/WASp R86C cells; format: cell-based, human; conditions: cells exclusively expressing YFP-WASp R86C, PMA and Ionomycin, vs control
Description: 1×10^6 WASp knockout Jurkat T-cell line that expresses only exogenous YFP-WASp harboring the common human WAS and XLT mutation, R86C (WAS−/−/WASp R86C) was pretreated with either negative control or SMC #34. Cells that completely lack WASp expression (WAS^−/−) were also treated with the control. The cells were then stimulated with PMA and Ionomycin. After incubation, the cells were stained with PE-Cy5™-conjugated mouse anti-human CD69 and lymphocyte activation was measured by flow cytometry as described in Experimental procedures. Histogram of negative control versus SMC #34 is presented.
as §1

YFP-WASp R86C or Y107C = test: WASp expression in WASp knockout Jurkat lines expressing only YFP-WASp R86C or Y107C (western blot); format: cell-based, human; conditions: WAS−/−/WASp R86C or Y107C, vs control-treated cells
Description: The cells were then co-stimulated with anti-CD3 and anti-CD28 and analyzed by western blot as described in FIG. 14B. […] Relative protein expression was determined by densitometric analysis and is presented below the corresponding lanes.
CRISPR/CAS9 knockdown of endogenous WASp in T-cells was conducted according to published protocol (Ran F A et al, 2013). The vector pSpCas9 (BB)-2A-GFP (PX458) was purchased from Addgene, plasmid #48138. RNA guides were designed to target an intron/exon junction in the WAS gene, in order to eliminate gene silencing of exogenous YFP-WASp. RNA guide sequences aimed for WASp locus were constructed using the online CRISPR design tool algorithm (Zhang Lab) and NCBI gene. The guides which received the highest score were selected to be subcloned into the pSpCas9 (BB)-2A-GFP (PX458) vector.
The sequence present in WASp exons is bold. The sequence that is complementary to WASp intron (chromosome X, GRCh38.p7 nucleotides 1883-1890) is underlined. Knockout of endogenous WASp was conducted in Jurkat cells alone or in Jurkat cells stably expressing YFP-WASp containing the following mutations, R86C (as denoted by SEQ ID NO. 13 and encoded by SEQ ID NO. 14) or Y107C (as denoted by SEQ ID NO. 15 and encoded by SEQ ID NO. 16). […]
Cells exclusively expressing the YFP-WASp mutants were incubated with SMC #34 or solvent, stimulated and analyzed by western blot.

N-WASp = molecular target: T2, N-WASp (Homo sapiens, UniProt O00401); test: MST binding, YFP-N-WASp in HEK 293T cell lysate
T2 construct: expressed in transfected cells; host or cells: HEK 293T, transient transfection; unpurified cell lysate
Description: as §2, §3, §4

T2 sequence (O00401 whole entry, species assumed): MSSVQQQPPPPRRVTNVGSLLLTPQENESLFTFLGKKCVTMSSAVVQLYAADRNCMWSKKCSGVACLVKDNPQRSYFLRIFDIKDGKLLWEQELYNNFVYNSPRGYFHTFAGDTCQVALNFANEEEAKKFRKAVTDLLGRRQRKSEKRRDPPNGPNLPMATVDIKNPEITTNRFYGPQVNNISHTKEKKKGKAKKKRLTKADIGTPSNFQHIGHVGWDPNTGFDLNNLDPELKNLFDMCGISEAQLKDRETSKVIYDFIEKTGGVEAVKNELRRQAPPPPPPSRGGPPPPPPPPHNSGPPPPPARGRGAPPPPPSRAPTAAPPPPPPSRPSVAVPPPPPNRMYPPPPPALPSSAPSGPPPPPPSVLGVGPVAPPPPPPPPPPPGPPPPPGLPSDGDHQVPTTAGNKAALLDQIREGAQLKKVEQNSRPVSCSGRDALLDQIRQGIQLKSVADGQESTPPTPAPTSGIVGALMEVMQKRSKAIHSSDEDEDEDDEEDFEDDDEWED
T1 sequence (Q9Y6W5 whole entry, species assumed): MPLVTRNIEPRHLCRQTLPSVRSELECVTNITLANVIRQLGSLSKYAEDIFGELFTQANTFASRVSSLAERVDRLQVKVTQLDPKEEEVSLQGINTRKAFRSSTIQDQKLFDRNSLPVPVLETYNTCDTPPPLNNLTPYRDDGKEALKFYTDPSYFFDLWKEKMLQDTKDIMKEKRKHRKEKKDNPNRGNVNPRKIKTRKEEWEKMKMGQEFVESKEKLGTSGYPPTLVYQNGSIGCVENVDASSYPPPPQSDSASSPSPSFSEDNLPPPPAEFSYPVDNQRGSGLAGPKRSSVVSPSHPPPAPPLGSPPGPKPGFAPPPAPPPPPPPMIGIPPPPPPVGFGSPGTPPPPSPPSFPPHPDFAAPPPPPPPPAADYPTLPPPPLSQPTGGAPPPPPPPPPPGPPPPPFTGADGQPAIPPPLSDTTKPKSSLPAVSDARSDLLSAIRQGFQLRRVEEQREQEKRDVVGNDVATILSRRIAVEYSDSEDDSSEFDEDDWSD

SMILES | lymphocyte activation (CD69, activated LFA-1) (Jurkat T cells) | binding to WAVE2 (WAVE2) | lymphocyte activation (CD69) [1] | WASp expression in cells exclusively expressing the YFP-WASp mutants (YFP-WASp R86C or Y107C) | binding to N-WASp (N-WASp)
CC(=O)N[C@H]1C[C@@H](c2ccc3c(c2)nnn3C)O[C@@H](c2ccc(Cl)cc2)C1 [SMC #6, N-[(2R,4R,6S)-2-(4-chlorophenyl)-6-(1-methylbenzotriazol-5-yl)oxan-4-yl]acetamide] | upregulation |  |  |  | 
CC1CCCC(C)N1C(=O)CSc1nnc(COc2cccc3cccnc23)o1 (centres unmarked) [SMC #34, 1-(2,6-dimethylpiperidin-1-yl)-2-[[5-(quinolin-8-yloxymethyl)-1,3,4-oxadiazol-2-yl]sulfanyl]ethanone] |  | no binding | upregulation of lymphocyte activation | increased WASp expression | no binding
